Measured values as given in patent US20090023933A1, “METHOD FOR ISOLATING ACIDS FROM CHEMICAL REACTION MIXTURES BY USING 1-ALKYLIMIDAZOLES” (BASF Aktiengesellschaft, priority 2003, published 2009).

Assay: Behavior of the 1-alkylimidazoles toward 30% strength NaCl solution (shaking funnel, phase separation, Karl-Fischer and GC analysis)
Conditions: for Solubility of free base in NaCl solution in %: free 1-alkylimidazole, 5 g imidazole shaken with 5 g solution of 30 g NaCl in 100 g water, lower phase extracted, GC with internal standard; for Solubility of water in imidazole in %: water determination on upper (imidazole) phase by Karl-Fischer titration after shaking with NaCl solution
Protocol: A solution of 30 g of sodium chloride in 100 g of demineralized water was prepared. 5 g of this solution were admixed with 5 g of the imidazole derivative listed in a shaking funnel and the mixture was shaken vigorously. The phases were then separated and weighed.
The weight of the upper phase was recorded.
For the purposes of analysis, a water determination was carried out on the upper phase (by Karl-Fischer titration). The lower phase was, if present, separated off, admixed with 1N KOH solution and extracted twice with xylene. After drying over magnesium sulfate, an internal standard (heptadecane) was added and the amount of dissolved imidazole was backcalculated after GC analysis.

Row | SMILES | Solubility of free base in NaCl solution in % [%] | Solubility of water in imidazole in %
1 | CCn1ccnc1 [Et (comp.)] | 100 | ca. 50%
2 | Cn1ccnc1 [Me (comp.)] | 100 | ca. 50%
3 | CCCCn1ccnc1 [nBu, n-butylimidazole] | 0.2 | 16%
4 | CCCn1ccnc1 [nPr, n-propylimidazole] | 3 | 30%
